Values quoted from earlier work, collected in US11154586B2, “Treating sexual dysfunction” (Olive Therapeutics, LLC, priority 2016, dated 2021).

What was measured:
[1] = intranasal, men or couples, single agent

Structure (SMILES): CC[C@H](C)[C@@H]1NC(=O)[C@H](Cc2ccc(O)cc2)NC(=O)[C@@H](N)CSSC[C@@H](C(=O)N2CCC[C@H]2C(=O)N[C@@H](CC(C)C)C(=O)NCC(N)=O)NC(=O)[C@H](CC(N)=O)NC(=O)[C@H](CCC(N)=O)NC1=O [oxytocin]
- Effect on sexual function, Case 1 (person, 2 hours after intranasal 16 IU, on progesterone only pill, repeated 2 days later): increased sexual desire, stronger uterine contractions during orgasm, and greater satisfaction
- Effect on sexual function, Case 2 (person, intranasal, off-label for social anxiety, apparently also on lisdexamfetamine): broad spectrum enhancement of the patient's sexual function
- Effect on anorgasmia, Case 3 (person, intranasal, earlier dopamine agonist and growth hormone): sustained restoration of their ability to achieve orgasm
- Effect on sexual function, Case 1, third administration (same person, 2 weeks later, after switch to barrier method): did not produce the same sexual enhancement
- Effect on biological measures of sexual functioning [1]: does not alter biological measures of sexual functioning
